{
  "source": "paper PMC5218480",
  "about": "(PLoS ONE, 2017)",
  "test_system": "MV-4-11 cells",
  "experiment": "Gene expression microarray analysis (Affymetrix PrimeView) and GSEA",
  "format": "cell-based, human",
  "design": "RFU PODN (11730768_x_at) / Fold change /veh PODN (11730768_x_at) / RFU LINC00158 (11744669_a_at) / Fold change /veh LINC00158 (11744669_a_at) / RFU DUSP10 (11751237_a_at) / Fold change /veh DUSP10 (11751237_a_at) / RFU ID3 (11757404_x_at) / Fold change /veh ID3 (11757404_x_at) / RFU PLEKHG5 (11737974_s_at) / Fold change /veh PLEKHG5 (11737974_s_at) / RFU LRRC4B (11730491_at) / Fold change /veh LRRC4B (11730491_at) / RFU GIMAP4 (11747438_a_at) / Fold change /veh GIMAP4 (11747438_a_at) / RFU KRT8 (11758183_x_at) / Fold change /veh KRT8 (11758183_x_at) / RFU CNN1 (11734310_a_at) / Fold change /veh CNN1 (11734310_a_at) / RFU VPS37D (11726825_at) / Fold change /veh VPS37D (11726825_at) / RFU C10orf10 (11716522_x_at) / Fold change /veh C10orf10 (11716522_x_at) / RFU KIR2DL2 /// KIR2DL4 /// KIR2DL5A /// KIR2DL5B /// KIR2DS1 /// KIR2DS2 /// KIR2DS3 /// KIR2DS4 /// KIR3DL3 /// KIR3DL3 /// KIR3DS1 (11738374_at) / Fold change /veh KIR2DL2 /// KIR2DL4 /// KIR2DL5A /// KIR2DL5B /// KIR2DS1 /// KIR2DS2 /// KIR2DS3 /// KIR2DS4 /// KIR3DL3 /// KIR3DL3 /// KIR3DS1 (11738374_at) / RFU C1QL1 (11718748_at) / Fold change /veh C1QL1 (11718748_at) / RFU TMPRSS4 (11747572_a_at) / Fold change /veh TMPRSS4 (11747572_a_at) / RFU HAMP (11756126_x_at) / Fold change /veh HAMP (11756126_x_at) / RFU RNFT2 (11725882_a_at) / Fold change /veh RNFT2 (11725882_a_at) / RFU NR4A2 (11747474_a_at) / Fold change /veh NR4A2 (11747474_a_at) / RFU ABCC12 (11746883_a_at) / Fold change /veh ABCC12 (11746883_a_at) / RFU TMEM136 (11760407_x_at) / Fold change /veh TMEM136 (11760407_x_at) / RFU CLDN22 /// WWC2 (11732394_at) / Fold change /veh CLDN22 /// WWC2 (11732394_at) / RFU HLA-DPB1 (11760878_x_at) / Fold change /veh HLA-DPB1 (11760878_x_at) / RFU SPINT1 (11716480_a_at) / Fold change /veh SPINT1 (11716480_a_at) / RFU GAP43 (11754022_s_at) / Fold change /veh GAP43 (11754022_s_at) / RFU A4GNT (11735810_at) / Fold change /veh A4GNT (11735810_at) / RFU PRB3 (11715151_x_at) / Fold change /veh PRB3 (11715151_x_at) / RFU TUBB4B (11761932_at) / Fold change /veh TUBB4B (11761932_at) / RFU CAPN14 (11732068_a_at) / Fold change /veh CAPN14 (11732068_a_at) / RFU TMCC2 (11721928_a_at) / Fold change /veh TMCC2 (11721928_a_at) / RFU IRGQ (11745062_a_at) / Fold change /veh IRGQ (11745062_a_at) / RFU FAM174B (11720279_a_at) / Fold change /veh FAM174B (11720279_a_at) / RFU TMPRSS4 (11748680_a_at) / Fold change /veh TMPRSS4 (11748680_a_at) / RFU FAM212B (11763350_a_at) / Fold change /veh FAM212B (11763350_a_at) / RFU PLEKHG5 (11743358_a_at) / Fold change /veh PLEKHG5 (11743358_a_at) / RFU ZSCAN30 (11745921_a_at) / Fold change /veh ZSCAN30 (11745921_a_at) / RFU CMKLR1 (11741424_a_at) / Fold change /veh CMKLR1 (11741424_a_at) / RFU LOC101060620 /// MAPK8IP1 (11723275_at) / Fold change /veh LOC101060620 /// MAPK8IP1 (11723275_at) / RFU SPTSSB (11747773_x_at) / Fold change /veh SPTSSB (11747773_x_at) / RFU PRSS12 (11739890_at) / Fold change /veh PRSS12 (11739890_at) / RFU BIN1 (11741810_x_at) / Fold change /veh BIN1 (11741810_x_at) / RFU WNT11 (11732464_a_at) / Fold change /veh WNT11 (11732464_a_at) / RFU C10orf10 (11716521_a_at) / Fold change /veh C10orf10 (11716521_a_at) / RFU C5orf56 (11738089_at) / Fold change /veh C5orf56 (11738089_at) / RFU CYB561 (11721691_x_at) / Fold change /veh CYB561 (11721691_x_at) / RFU ANKRD19P (11752326_a_at) / Fold change /veh ANKRD19P (11752326_a_at) / RFU OR2T12 /// OR2T33 /// OR2T8 (11738714_s_at) / Fold change /veh OR2T12 /// OR2T33 /// OR2T8 (11738714_s_at) / RFU VCAN (11748164_a_at) / Fold change /veh VCAN (11748164_a_at) / RFU JSRP1 (11732532_at) / Fold change /veh JSRP1 (11732532_at) / RFU KRTAP10-11 (11738290_x_at) / Fold change /veh KRTAP10-11 (11738290_x_at) / RFU MYO3A (11730013_a_at) / Fold change /veh MYO3A (11730013_a_at) / RFU EBF3 (11725865_a_at) / Fold change /veh EBF3 (11725865_a_at) / RFU CAMK2N1 (11719241_x_at) / Fold change /veh CAMK2N1 (11719241_x_at) / RFU C5orf56 (11738088_a_at) / Fold change /veh C5orf56 (11738088_a_at) / RFU OLFML3 (11715873_a_at) / Fold change /veh OLFML3 (11715873_a_at) / RFU LOC100653217 /// NTM (11731650_a_at) / Fold change /veh LOC100653217 /// NTM (11731650_a_at) / RFU MAPK11 (11762145_a_at) / Fold change /veh MAPK11 (11762145_a_at) / RFU FIZ1 (11724087_x_at) / Fold change /veh FIZ1 (11724087_x_at) / RFU OASL (11726364_x_at) / Fold change /veh OASL (11726364_x_at) / RFU SOX15 (11748057_x_at) / Fold change /veh SOX15 (11748057_x_at) / RFU CD79A (11719716_a_at) / Fold change /veh CD79A (11719716_a_at) / RFU HIST1H1D (11736915_at) / Fold change /veh HIST1H1D (11736915_at) / RFU CASKIN2 (11723855_a_at) / Fold change /veh CASKIN2 (11723855_a_at) / RFU LOC730098 (11760151_x_at) / Fold change /veh LOC730098 (11760151_x_at) / RFU OR4N2 (11742367_at) / Fold change /veh OR4N2 (11742367_at) / RFU PRRT2 (11749266_a_at) / Fold change /veh PRRT2 (11749266_a_at) / RFU SNX32 (11753110_a_at) / Fold change /veh SNX32 (11753110_a_at) / RFU CDHR5 (11726645_a_at) / Fold change /veh CDHR5 (11726645_a_at) / RFU RCAN1 (11760418_a_at) / Fold change /veh RCAN1 (11760418_a_at) / RFU FAM167A (11723789_a_at) / Fold change /veh FAM167A (11723789_a_at) / RFU FAM26E (11764081_at) / Fold change /veh FAM26E (11764081_at) / RFU ISYNA1 (11749810_s_at) / Fold change /veh ISYNA1 (11749810_s_at) / RFU ACY1 (11761880_at) / Fold change /veh ACY1 (11761880_at) / RFU 11764098_at / Fold change /veh 11764098_at / RFU SAMD14 (11745864_x_at) / Fold change /veh SAMD14 (11745864_x_at) / RFU NPB (11741838_a_at) / Fold change /veh NPB (11741838_a_at) / RFU TMPRSS6 (11731388_a_at) / Fold change /veh TMPRSS6 (11731388_a_at) / RFU KRTAP10-2 (11738614_at) / Fold change /veh KRTAP10-2 (11738614_at) / RFU ARHGAP8 /// PRR5-ARHGAP8 (11727945_x_at) / Fold change /veh ARHGAP8 /// PRR5-ARHGAP8 (11727945_x_at) / RFU KRTAP5-7 /// NADSYN1 (11734609_at) / Fold change /veh KRTAP5-7 /// NADSYN1 (11734609_at) / RFU RASL12 (11751679_a_at) / Fold change /veh RASL12 (11751679_a_at) / RFU CDKN2B (11736163_a_at) / Fold change /veh CDKN2B (11736163_a_at) / RFU PRF1 (11729649_at) / Fold change /veh PRF1 (11729649_at) / RFU, ZNF638 /// ZNF638-IT1 / Fold change vs veh, ZNF638 /// ZNF638-IT1 / RFU, PANK3 / Fold change vs veh, PANK3 / RFU, SH3YL1 / Fold change vs veh, SH3YL1 / RFU, ZEB2 / Fold change vs veh, ZEB2 / RFU, NRIP1 / Fold change vs veh, NRIP1 / RFU, PTTG1IP / Fold change vs veh, PTTG1IP / RFU, CAPN2 / Fold change vs veh, CAPN2 / RFU, MED14 / Fold change vs veh, MED14 / RFU, SNORA58 / Fold change vs veh, SNORA58 / RFU, C1orf63 / Fold change vs veh, C1orf63 / RFU, LRRFIP1 / Fold change vs veh, LRRFIP1 / RFU, NDUFAF7 / Fold change vs veh, NDUFAF7 / RFU, SLC12A2 / Fold change vs veh, SLC12A2 / RFU, IBTK / Fold change vs veh, IBTK / RFU, ESF1 / Fold change vs veh, ESF1 / Fold change vs veh, TMEM50B / RFU, TAOK1 / Fold change vs veh, TAOK1 / RFU, ACBD3 / Fold change vs veh, ACBD3 / RFU, TMA16 / Fold change vs veh, TMA16 / RFU, RWDD3 / Fold change vs veh, RWDD3 / RFU, BCAT1 / Fold change vs veh, BCAT1 / RFU, EDEM3 / Fold change vs veh, EDEM3 / RFU, TMEM33 / Fold change vs veh, TMEM33 / RFU, WDR75 / Fold change vs veh, WDR75 / RFU, AHCTF1 / Fold change vs veh, AHCTF1 / RFU, TFRC / Fold change vs veh, TFRC / RFU, ZDHHC17 / Fold change vs veh, ZDHHC17 / RFU, NOM1 / Fold change vs veh, NOM1 / RFU, ARL8B / Fold change vs veh, ARL8B / RFU, ZBTB11 / Fold change vs veh, ZBTB11 / RFU, TAMM41 / Fold change vs veh, TAMM41 / RFU, KIAA1704 /// LOC100996395 / Fold change vs veh, KIAA1704 /// LOC100996395 / RFU, ING1 / Fold change vs veh, ING1 / RFU, TRMT61B / Fold change vs veh, TRMT61B / RFU, FUBP3 / Fold change vs veh, FUBP3 / RFU, TP53 / Fold change vs veh, TP53 / RFU, TNKS2 / Fold change vs veh, TNKS2 / RFU, ZFP14 / Fold change vs veh, ZFP14 / RFU, ACTR2 / Fold change vs veh, ACTR2 / RFU, PPP3R1 / Fold change vs veh, PPP3R1 / RFU, PIK3R1 / Fold change vs veh, PIK3R1 / RFU, HNRNPA1 / Fold change vs veh, HNRNPA1 / RFU, RNF170 / Fold change vs veh, RNF170 / RFU, ZNF28 / Fold change vs veh, ZNF28 / RFU, RNGTT / Fold change vs veh, RNGTT / RFU, OGT / Fold change vs veh, OGT / RFU, BRD1 / Fold change vs veh, BRD1 / RFU, MARS / Fold change vs veh, MARS / RFU, ZNF655 / Fold change vs veh, ZNF655 / RFU, FAHD1 / Fold change vs veh, FAHD1 / RFU, BDP1 / Fold change vs veh, BDP1 / RFU, LRRCC1 / Fold change vs veh, LRRCC1 / RFU, ARID1A / Fold change vs veh, ARID1A / RFU, ZNF146 / Fold change vs veh, ZNF146 / RFU, ZNF330 / Fold change vs veh, ZNF330 / RFU, GPN3 / Fold change vs veh, GPN3 / RFU, C9orf123 / Fold change vs veh, C9orf123 / RFU, N4BP2L2 / Fold change vs veh, N4BP2L2 / RFU, ARFIP1 / Fold change vs veh, ARFIP1 / RFU, FAM179B / Fold change vs veh, FAM179B / RFU, BCL10 / Fold change vs veh, BCL10 / RFU, UHRF1BP1L / Fold change vs veh, UHRF1BP1L / RFU, BET1 / Fold change vs veh, BET1 / RFU, CNOT2 / Fold change vs veh, CNOT2 / RFU, ZNF268 / Fold change vs veh, ZNF268 / Fold change vs veh, ZNF507 / RFU, DGCR2 / Fold change vs veh, DGCR2 / RFU, WDSUB1 / Fold change vs veh, WDSUB1 / Fold change vs veh, HSP90B1 /// MIR3652 / RFU, ADSS / Fold change vs veh, ADSS / RFU, GK / Fold change vs veh, GK / RFU, ZNF148 / Fold change vs veh, ZNF148 / RFU, TAF9 / Fold change vs veh, TAF9 / RFU, SLC1A5 / Fold change vs veh, SLC1A5 / RFU, SLMO2 / Fold change vs veh, SLMO2 / RFU, ABCC4 / Fold change vs veh, ABCC4 / RFU, LOC101060439 /// RAP1B / Fold change vs veh, LOC101060439 /// RAP1B / RFU, RFX7 / Fold change vs veh, RFX7 / RFU, GTPBP10 / Fold change vs veh, GTPBP10 / RFU, CNEP1R1 / Fold change vs veh, CNEP1R1 / RFU, BIVM-ERCC5 /// ERCC5 / Fold change vs veh, BIVM-ERCC5 /// ERCC5 / RFU, ILF3 / Fold change vs veh, ILF3 / RFU 11762660_at / Fold change /veh 11762660_at / RFU VCAN (11757783_s_at) / Fold change /veh VCAN (11757783_s_at) / RFU DDX43 (11728927_at) / Fold change /veh DDX43 (11728927_at) / RFU KRT8 (11758188_x_at) / Fold change /veh KRT8 (11758188_x_at) / RFU NKD1 (11759106_at) / Fold change /veh NKD1 (11759106_at) / RFU SRD5A1 (11742802_a_at) / Fold change /veh SRD5A1 (11742802_a_at) / RFU TPSAB1 /// TPSB2 (11721975_s_at) / Fold change /veh TPSAB1 /// TPSB2 (11721975_s_at) / RFU GSTM3 (11746129_a_at) / Fold change /veh GSTM3 (11746129_a_at) / RFU IL23R (11737362_x_at) / Fold change /veh IL23R (11737362_x_at) / RFU TMEM51 (11727254_a_at) / Fold change /veh TMEM51 (11727254_a_at) / RFU PIWIL2 (11732686_x_at) / Fold change /veh PIWIL2 (11732686_x_at) / RFU ORM1 (11744905_x_at) / Fold change /veh ORM1 (11744905_x_at) / RFU CCDC152 (11743942_at) / Fold change /veh CCDC152 (11743942_at) / RFU ECM1 (11717891_a_at) / Fold change /veh ECM1 (11717891_a_at) / RFU IL23R (11748794_a_at) / Fold change /veh IL23R (11748794_a_at) / RFU TNFAIP8L3 (11732012_x_at) / Fold change /veh TNFAIP8L3 (11732012_x_at) / RFU MBOAT4 (11741988_at) / Fold change /veh MBOAT4 (11741988_at) / RFU 11764193_at / Fold change /veh 11764193_at / RFU TMEM53 (11763286_at) / Fold change /veh TMEM53 (11763286_at) / RFU MAGEB2 (11727129_at) / Fold change /veh MAGEB2 (11727129_at) / RFU TMEM200A (11744735_a_at) / Fold change /veh TMEM200A (11744735_a_at) / RFU CCDC152 (11751479_a_at) / Fold change /veh CCDC152 (11751479_a_at) / RFU FAM211A (11726209_a_at) / Fold change /veh FAM211A (11726209_a_at) / RFU RGS16 (11746705_a_at) / Fold change /veh RGS16 (11746705_a_at) / RFU VCAN (11755009_s_at) / Fold change /veh VCAN (11755009_s_at) / RFU RHOB (11743442_s_at) / Fold change /veh RHOB (11743442_s_at) / RFU RGS16 (11720943_a_at) / Fold change /veh RGS16 (11720943_a_at) / RFU RGS16 (11720944_at) / Fold change /veh RGS16 (11720944_at) / RFU, VPS4B / Fold change vs veh, VPS4B / RFU, CREB1 / Fold change vs veh, CREB1 / RFU, DNAJC13 / Fold change vs veh, DNAJC13 / RFU, GNAQ / Fold change vs veh, GNAQ / RFU, CDK5R1 / Fold change vs veh, CDK5R1 / RFU, ZRANB3 / Fold change vs veh, ZRANB3 / RFU, CUL4A / Fold change vs veh, CUL4A / RFU, CCNY / Fold change vs veh, CCNY / RFU, UFL1 / Fold change vs veh, UFL1 / RFU, COG3 / Fold change vs veh, COG3 / RFU, DIAPH2 / Fold change vs veh, DIAPH2 / RFU, SKA2 / Fold change vs veh, SKA2 / RFU, AFF3 / Fold change vs veh, AFF3 / RFU, LMF1 / Fold change vs veh, LMF1 / RFU, IPO11 / Fold change vs veh, IPO11 / RFU, DFFB / Fold change vs veh, DFFB / RFU, FOXP1 / Fold change vs veh, FOXP1 / RFU, CARD8 / Fold change vs veh, CARD8 / RFU, STRN3 / Fold change vs veh, STRN3 / RFU, ADK / Fold change vs veh, ADK / RFU, RASSF2 / Fold change vs veh, RASSF2 / RFU, WIPF1 / Fold change vs veh, WIPF1 / RFU, LARP1B / Fold change vs veh, LARP1B / RFU, RASA1 / Fold change vs veh, RASA1 / RFU, RB1 / Fold change vs veh, RB1 / RFU, PPFIA1 / Fold change vs veh, PPFIA1 / RFU, MAT2A / Fold change vs veh, MAT2A / RFU, CCT5 / Fold change vs veh, CCT5 / RFU, WDR92 / Fold change vs veh, WDR92 / RFU, CUX1 / Fold change vs veh, CUX1 / RFU, TTC7A / Fold change vs veh, TTC7A / RFU, TMEM135 / Fold change vs veh, TMEM135 / RFU, DEPTOR / Fold change vs veh, DEPTOR / RFU, CPM / Fold change vs veh, CPM / RFU, DNAJB6 / Fold change vs veh, DNAJB6 / RFU, CACNA2D3 / Fold change vs veh, CACNA2D3 / RFU, DTX4 / Fold change vs veh, DTX4 / RFU, TFCP2 / Fold change vs veh, TFCP2 / RFU, GMCL1 /// GMCL1P1 / Fold change vs veh, GMCL1 /// GMCL1P1 / RFU, AEBP2 / Fold change vs veh, AEBP2 / RFU, SNHG1 /// SNORD22 /// SNORD25 /// SNORD26 /// SNORD27 /// SNORD28 /// SNORD29 /// SNORD31 / Fold change vs veh, SNHG1 /// SNORD22 /// SNORD25 /// SNORD26 /// SNORD27 /// SNORD28 /// SNORD29 /// SNORD31 / Fold change (Aza/veh), C12orf56 (ProbeSet 11735607_a_at) / Fold change (ACY-1035/veh), C12orf56 (ProbeSet 11735607_a_at) / Fold change (Aza/veh), FGFR1OP (ProbeSet 11751329_s_at) / Fold change (ACY-1035/veh), FGFR1OP (ProbeSet 11751329_s_at) / Fold change (Aza/veh), VPS36 (ProbeSet 11739960_a_at) / Fold change (ACY-1035/veh), VPS36 (ProbeSet 11739960_a_at) / RFU SYPL1 (11715823_x_at) / Fold change /veh SYPL1 (11715823_x_at) / RFU IGFBP7 (11715501_s_at) / Fold change /veh IGFBP7 (11715501_s_at) / RFU REEP3 (11722064_at) / Fold change /veh REEP3 (11722064_at) / RFU IGLL1 (11728026_x_at) / Fold change /veh IGLL1 (11728026_x_at): dose or concentration left out as unconfirmed",
  "conditions": "ProbeSet 11723944_a_at; LIST B",
  "data": [
    {"molecule": "Nc1ccc(-c2cccs2)cc1NC(=O)c1ccc2c(c1)cc(C1CC1)n2CCN1CCOCC1", "note": "[ACY-1035]", "values": [
      {"measurement": "Fold change vs veh, PTTG1IP", "value": 0.91}
    ]}
  ]
}
